Assay results: patent US6156789A, “Method for treating abnormal cell proliferation in the brain” (Rhone-Poulenc Rorer S.A., priority 1998, dated 2000)
Several values for one entry are separate records, joined by “and”; a condition that tells them apart may be missing. Equal values may be shown once. Read-outs that look alike come from different tables or passages of the source.

Assay: Tissue distribution of Compound A in mice with mammary C/16 adenocarcinomas (first method: liver, heart, kidney, lung, spleen, tumor)
Assay type: in vivo, C3H/HeN female mice
Set-up: key to Percentage of Compound A (of dose) in Liver / Percentage of Compound A (of dose) in Heart / Percentage of Compound A (of dose) in Kidney / Percentage of Compound A (of dose) in Lung / Percentage of Compound A (of dose) in Spleen / Percentage of Compound A (of dose) in Tumor: --: not detected
Details: for Kp at 0.5 h: 0.50 h
Description: Mammary C/16 adenocarcinomas were implanted in C3H/HeN female mice. At least 7 days later, 4α,10β-diacetoxy-2α-benzoyloxy-5β,20-epoxy-1β-hydroxy-7β,8β-methylene-9-oxo-19-nor-11-taxen-13α-yl (2R,3S)-3-tert-butoxycarbonylamino-2-hydroxy-3-phenylpropionate ("Compound A") was administered to groups of female mice at doses of 9.5, 15.4, 24.8, 40 or 60.5 mg/kg by intravenous injection under 0.4 or 0.5 ml/injection over 15 seconds. The body weight and date of implantation were recorded for each mouse. Blood and tissue samples were taken 2, 5, 15, 30 and 45 minutes and 1, 4, 14, 24 and 48 hours, after administration. The plasma was separated from the blood samples at 4° C. and frozen immediately. The tissue and tumors were weighed and frozen immediately (-20° C.).
The plasma and tissue samples were then analyzed for the concentration of Compound A. The plasma was assayed by high pressure liquid chromatography with spectrophotometric detection. For the tissue, liver, heart, kidney, lung, spleen and tumor tissue, samples were assayed by a first method, while a second method was used for the brain tissue analyzed. In the first method, 0.2 g of tissue was combined with 2 ml of sodium phosphate buffer 0.1 M (pH:7) and homogenized. The homogenate was centrifuged and 0.5 ml of supernatant was injected into the chromatographic column. In the second method, 10 μl of standard solution was combined with 0.2 g of brain tissue. 2 ml of methanol/5% perchloric acid (50/50) were added and the mixture was homogenized. The homogenate was centrifuged and 100 μl of supernatant was injected into the chromatographic column.

[1] = 0.033 h, 40 μg/kg [sic], mice with tumors, single mice, 40 mg/kg, 1.98 min
[2] = mouse, heart/plasma, iv, 40 mg/kg, mice with tumors, single mice, read-out: Tissue/Plasma Ratio, HEART
[3] = mouse, kidney/plasma, iv, 40 mg/kg, 40 μg/kg [sic], mice with tumors, single mice, read-out: Tissue/Plasma Ratio, KIDNEY

In the case of `CC(=O)O[C@H]1C(=O)[C@]23C[C@H]2C[C@H]2OC[C@@]2(OC(C)=O)[C@H]3[C@H](OC(=O)c2ccccc2)[C@]2(O)C[C@H](OC(=O)[C@H](O)[C@@H](NC(=O)OC(C)(C)C)c3ccccc3)C(C)=C1C2(C)C` [Compound A, 4α,10β-diacetoxy-2α-benzoyloxy-5β,20-epoxy-1β-hydroxy-7β,8β-methylene-9-oxo-19-nor-11-taxen-13α-yl (2R,3S)-3-tert-butoxycarbonylamino-2-hydroxy-3-phenylpropionate], the “distribution in tissues sampled” value (40 mg/kg i.v.) is reported as “quickly distributed in all tissues sampled”, the “percentage (concentration) in sampled tissue over time” value (40 mg/kg i.v., first few hours, except tumor and brain tissue) is reported as “fell off rapidly over the first few hours following drug administration, except in the tumor and brain tissue” and the “uptake of the drug” value (40 mg/kg i.v., mice with mammary carcinoma) is reported as “fast uptake of the drug”. The “drug present at 0.033 h cleared in one hour” value (40 mg/kg i.v., rapid phase, except tumor and brain tissue) was 70%, the “Tissue/Plasma Ratio, KIDNEY” value [1] was 1.25 and 1.20 and the “Tissue/Plasma Ratio, LIVER” value [1] was 0.91. For the same compound, the “Tissue/Plasma Ratio, SPLEEN” value [1] was 0.42 and 0.43 and 0.41, the “Percentage of Compound A (of dose) in Heart” value (“Percentage … in Heart” below) (0.033 h, 40 mg/kg) was 0.46% and the “Percentage of Compound A (of dose) in Kidney” value (shortened to “Percentage … in Kidney”) (0.033 h, 40 mg/kg) was 2.06%. For the same compound, the “Percentage of Compound A (of dose) in Liver” value (from here on “Percentage … in Liver”) (0.033 h, 40 mg/kg) was 9.73%, the “Percentage of Compound A (of dose) in Lung” value (“Percentage … in Lung” below) (0.033 h, 40 mg/kg) was 0.67% and the “Percentage of Compound A (of dose) in Spleen” value (from here on “Percentage … in Spleen”) (0.033 h, 40 mg/kg) was 0.27%. The “Percentage of Compound A (of dose) in Tumor” value (“Percentage … in Tumor” for short) (0.033 h, 40 mg/kg) was 1.07%, the “Percentage of Compound A (of dose) in tissues, Total” value (“Percentage … Total” below) (0.033 h, 40 mg/kg) was 14.45% and the “Tissue/Plasma Ratio, LUNG” value (0.083 h, 40 μg/kg [sic], mice with tumors, single mice, 40 mg/kg, 4.98 min) was 0.69. For the same compound, the “Percentage … in Heart” value (1 h, 40 mg/kg) was 0.08%, the “Percentage … in Kidney” value (1 h, 40 mg/kg) was 0.56% and the “Percentage … in Liver” value (1 h, 40 mg/kg) was 2.10%. The “Percentage … in Lung” value (1 h, 40 mg/kg) was 0.18%, the “Percentage … in Spleen” value (1 h, 40 mg/kg) was 0.10% and the “Percentage … in Tumor” value (1 h, 40 mg/kg) was 0.94%. For the same compound, the “Percentage … Total” value (1 h, 40 mg/kg) was 4.37%, the “Percentage … in Heart” value (4 h, 40 mg/kg) was 0.03% and the “Percentage … in Kidney” value (4 h, 40 mg/kg) was 0.23%. The “Percentage … in Liver” value (4 h, 40 mg/kg) was 0.47%, the “Percentage … in Lung” value (4 h, 40 mg/kg) was 0.08% and the “Percentage … in Spleen” value (4 h, 40 mg/kg) was 0.05%. For the same compound, the “Percentage … in Tumor” value (4 h, 40 mg/kg) was 0.37%, the “Percentage … Total” value (4 h, 40 mg/kg) was 1.62% and the “Percentage … in Heart” value (24 h, 40 mg/kg) was “--”. For the same compound, the “Percentage … in Kidney” value (24 h, 40 mg/kg) was “--”, the “Percentage … in Liver” value (24 h, 40 mg/kg) was “--” and the “Percentage … in Lung” value (24 h, 40 mg/kg) was “--”. For the same compound, the “Percentage … in Spleen” value (24 h, 40 mg/kg) was “--”, the “Percentage … in Tumor” value (24 h, 40 mg/kg) was 0.09% and the “Percentage … Total” value (24 h, 40 mg/kg) was 0.42%. For the same compound, the “Percentage … in Heart” value (48 h, 40 mg/kg) was “--”, the “Percentage … in Kidney” value (48 h, 40 mg/kg) was “--” and the “Percentage … in Liver” value (48 h, 40 mg/kg) was “--”. For the same compound, the “Percentage … in Lung” value (48 h, 40 mg/kg) was “--”, the “Percentage … in Spleen” value (48 h, 40 mg/kg) was “--” and the “Percentage … in Tumor” value (48 h, 40 mg/kg) was “--”. The “Percentage … Total” value (48 h, 40 mg/kg) was 0.19%, the “AUC 0-4 Hours, Heart” value (dose = 40 mg/kg) was 24.8 µg·h/g and the “AUC 0-4 Hours, Kidney” value (dose = 40 mg/kg) was 74.4 µg·h/g. For the same compound, the “AUC 0-4 Hours, Liver” value (dose = 40 mg/kg) was 70.8 µg·h/g, the “AUC 0-4 Hours, Lung” value (dose = 40 mg/kg) was 34.3 µg·h/g and the “AUC 0-4 Hours, Spleen” value (dose = 40 mg/kg) was 34.6 µg·h/g. For the same compound, the “AUC 0-4 Hours, Tumor” value (dose = 40 mg/kg) was 35.6 µg·h/g, the “AUC 0 to Infinity, Heart” value (dose = 40 mg/kg) was 28 µg·h/g and the “AUC 0 to Infinity, Kidney” value (dose = 40 mg/kg) was 121 µg·h/g. The “AUC 0 to Infinity, Liver” value (dose = 40 mg/kg) was 93 µg·h/g, the “AUC 0 to Infinity, Lung” value (dose = 40 mg/kg) was 52 µg·h/g and the “AUC 0 to Infinity, Spleen” value (dose = 40 mg/kg) was 80 µg·h/g. For the same compound, the “AUC 0 to Infinity, Tumor” value (dose = 40 mg/kg) was 107 µg·h/g, the half-life (mouse, heart, iv, 40 mg/kg, read-out: t 1/2, Heart (converted)) was 96 min and the Tmax (mouse, heart, iv, 40 mg/kg i.v., read-out: time of maximum concentration, heart) was 1.98 min. It also gave a Kp at 0.033 h (mouse, heart/plasma, iv, 40 mg/kg, 0.033 h, mice with tumors, single mice, read-out: Tissue/Plasma Ratio, HEART) of 0.45, a Kp at 0.083 h (mouse, heart/plasma, iv, 40 mg/kg, 0.083 h, mice with tumors, single mice, read-out: Tissue/Plasma Ratio, HEART) of 0.98 and a Kp at 0.25 h [2] of 0.65. It also gave a Kp at 0.5 h [2] of 0.88, a Kp at 0.75 h [2] of 0.87 and a Kp at 1 h (mouse, heart/plasma, iv, 40 mg/kg, 1 h, mice with tumors, single mice, read-out: Tissue/Plasma Ratio, HEART) of 0.77. The half-life (mouse, kidney, iv, 40 mg/kg, 40 mg/kg i.v., read-out: half-life of the distribution phase, kidney (converted)) was 3 min, the half-life (mouse, kidney, iv, 40 mg/kg, read-out: t 1/2, Kidney (converted)) was 162 min and the Tmax (mouse, kidney, iv, 40 mg/kg i.v., read-out: time of maximum concentration, kidney) was 1.98 min. The Kp at 0.033 h (mouse, kidney/plasma, iv, 40 mg/kg, 0.033 h, 40 μg/kg [sic], mice with tumors, single mice, read-out: Tissue/Plasma Ratio, KIDNEY) was 1.7, the Kp at 0.083 h (mouse, kidney/plasma, iv, 40 mg/kg, 0.083 h, 40 μg/kg [sic], mice with tumors, single mice, read-out: Tissue/Plasma Ratio, KIDNEY) was 2.4 and the Kp at 0.25 h [3] was 1.35. It also gave a Kp at 0.5 h [3] of 1.88 and a Kp at 0.75 h [3] of 2.44.
